The text below walks through data of patent US20100286035A1, “NEUROMEDIN U DERIVATIVE” (Takeda Pharmaceutical Company Limited, priority 2007, published 2010).

One test concerns the target T1, Human FM3 (Homo sapiens, UniProt Q9HB89).
T1 construct: expressed in transfected cells; host or cells: CHO (dhfr-) cells; membrane fraction
T1 sequence (Q9HB89 1-426 R203Q): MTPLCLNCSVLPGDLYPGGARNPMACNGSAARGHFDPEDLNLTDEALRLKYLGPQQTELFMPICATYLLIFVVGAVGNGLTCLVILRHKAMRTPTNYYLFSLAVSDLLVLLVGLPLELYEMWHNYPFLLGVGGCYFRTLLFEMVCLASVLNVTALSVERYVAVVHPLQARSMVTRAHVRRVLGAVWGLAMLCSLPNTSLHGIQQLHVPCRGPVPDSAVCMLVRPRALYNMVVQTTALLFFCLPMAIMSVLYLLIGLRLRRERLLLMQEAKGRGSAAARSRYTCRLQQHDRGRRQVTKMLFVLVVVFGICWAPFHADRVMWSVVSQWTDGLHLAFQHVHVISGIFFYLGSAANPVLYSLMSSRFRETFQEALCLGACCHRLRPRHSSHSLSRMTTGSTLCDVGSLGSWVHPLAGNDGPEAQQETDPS
The test can be described thus: Receptor binding study: 125I-NMU 8 labeled ligand binding inhibition to the FM3 membrane fraction. The following applies: FM3/CHO membrane fraction, 25° C. for 60 min, read-out: FM3 RBA IC50. On the procedure: Human FM3 represented CHO cells (dhfr-) and human TRI represented CHO cells (dhfr-) were cultured under 5% carbon dioxide conditions at 37° C. using a 10% dialyzed FBS-containing MEMα (Invitrogen) culture. The adhered cells were peeled with 10 ml of 0.1 mM EDTA containing DPB-S (Invitrogen) and cells were recovered by centrifugal separation at 4° C. at 1000 rpm for 10 min. 15 ml of homogenizer buffer (10 mM NaHCO3 (pH 7.4), 5 mM EDTA, Protein Inhibitors=0.5 mM PMSF, 10 μg/ml Pepstatin A, 20 μg/ml Leupeptin, 4 μg/ml E-64) were added to the cell pellets obtained. […]
Next, the reactivity between the radiation labeled ligand ^125I-NMU 8 and each receptor represented cell membrane fraction was analyzed by scatchard analysis using a reactive buffer (50 mM HEPES (pH 6.8), 1 mM EDTA, 0.1% BSA, Protein Inhibitors). […]
Namely, dilution strings of NMU derivatives and PEG conjugates were provided and diluted membrane fraction solutions (200 μl) were added. […] According to the aforementioned operations, the amount of binding of the labeled ligand remaining in the filter was measured and the IC50 values were calculated using graph pad PRISM (FIG. 4A (FM3 receptor binding), FIG. 4B (TGR1 receptor binding), FIG. 4C (FM3 receptor binding), FIG. 4D (TGR1 receptor binding) Table 9).

A further test concerns male C57BL/6J mice. The test can be described thus: Test Example 2: antifeedant activity of NMU-23 and NMU-8 in mice. Format: in vivo. As to conditions: peripheral administration. On the procedure:
7 weeks old male C57BL/6J mice (mean bodyweight: 25 g) delivered from the Japan Charles River Company were raised for 5 to 10 days after delivery under a feeding environment regulated for temperature and humidity with lighting time (25° C., 12 hours of lighted period and 12 hours of dark period, light was lit at 8:00). Four animals were placed in one cage. After handling the mice for 5 to 8 days, the animals were housed singly in each cage where a floor mesh was spread and acclimated by intraperitoneal injection for 3 days prior to the administration of a peptide. The animals acclimated were fasted for 16 hours from 18:00 prior to the administration of the peptide. However, the animals had free access to drinking water. […] After the injection of the peptide solution, MF feed which had been weighed (Oriental Yeast Industry) was given freely to the mice. Further, the residual amount of the feed was measured after 3, 6 and 24 hours. The food intakes at 3, 6 and 24 hours were calculated by subtracting the residual amount of the feed after 3, 6 and 24 hours from the amount of the feed that was originally given.
[In FIG. 2, * and ** tested by T-tests indicated to be lower at the levels of significance of 0.05 and 0.01 (P<0.05 and P<0.01]

Regarding `CC(C)C[C@H](NC(=O)[C@H](Cc1ccccc1)NC(=O)[C@@H](N)Cc1ccc(O)cc1)C(=O)N[C@@H](Cc1ccccc1)C(=O)N[C@@H](CCCNC(=N)N)C(=O)N1CCC[C@H]1C(=O)N[C@@H](CCCNC(=N)N)C(=O)N[C@@H](CC(N)=O)C(N)=O` [NMU-8, Try-Phe-Leu-Phe-Arg-Pro-Arg-Asn-NH2], the IC50 on Human FM3 is 0.19 nM. Besides, the “antifeedant activity via peripheral administration” value in the test on male C57BL/6J mice is recorded as “did not express an antifeedant activity”.

By IC50 is commonly meant the concentration that gives 50% inhibition.
